Data taken from patent publication US7820661B2, “Substituted gamma lactams as therapeutics agents” (Allergan, Inc., priority 2008, dated 2010).

System: lashes and adjacent hairs (hair growth)
Assay: Observation of lashes and adjacent hairs in glaucoma patients treated with bimatoprost in only one eye
Type: in vivo
From the text: In the course of treating patients having glaucoma, treatment may only be appropriate in one eye. […] The lash appearance on the lids of the treated eyes would have appeared quite attractive if it represented a bilateral phenomenon. As a result of its asymmetric nature, the long lashes on one side could be construed as disturbing from a cosmetic standpoint. A systemic examination was preformed as a result of the asymmetric phenomenon. It soon became apparent that this altered appearance was not an isolated finding.
The changes in the lashes were apparent on gross inspection in several patients once attention was focused on the issue. In those with light colored hair and lashes, the differences were only seen easily with the aid of the high magnification and lighting capabilities of the slit lamp biomicroscope. In the course of glaucoma follow-up examination, attention is generally immediately focused on the eye itself. As a result of the high power magnification needed only one eye is seen at a time and the eye is seen at a high enough power that the lashes are not in focus. At these higher powers, any lash asymmetry between the two eyes is not likely to be noticed except by careful systematic comparison of the lashes and adjacent hairs of the eyelids of the two eyes. […]

CCNC(=O)CCC/C=C\C[C@@H]1[C@@H](/C=C/[C@@H](O)CCc2ccccc2)[C@H](O)C[C@@H]1O [bimatoprost]
differences in the lashes and adjacent hairs of the treated side (all patients taking the drug on a unilateral basis for longer than 6 months): Definite differences could be identified to varying degrees
appearance of lashes in the treated eye compared with the non-treated eye (glaucoma patient treated in one eye, treated vs non-treated eye): longer, thicker, and fuller
